biological target: vanilloid receptor 1 (VR1/TRPV1 receptor) (Homo sapiens, UniProt Q8NER1); test: Functional FLIPR Ca2+ influx assay on vanilloid receptor 1, capsaicin (Cap) stimulus; assay type: cell-based; details: Ki from IC50 by Cheng-Prusoff, read-out: (f) Ki (human being) [nM], Cap
Method: Furthermore, preference may be given to compounds according to the invention that cause a 50 percent displacement of capsaicin, which is present at a concentration of 100 nM, in a FLIPR assay with CHO K1 cells which were transfected with the human VR1 gene at a concentration of less than 2,000 nM, preferably less than 1,000 nM, particularly preferably less than 300 nM, most particularly preferably less than 100 nM, even more preferably less than 75 nM, additionally preferably less than 50 nM, most preferably less than 10 nM.
In the process, the Ca^2+ influx is quantified in the FLIPR assay with the aid of a Ca^2+-sensitive dye (type Fluo-4, Molecular Probes Europe BV, Leiden, the Netherlands) in a fluorescent imaging plate reader (FLIPR, Molecular Devices, Sunnyvale, USA), as described hereinafter.
Pharmacological Methods I. Functional Testing Carried Out on the Vanilloid Receptor 1 (VRI/TRPV1 Receptor) […]
The number of cells in the suspension is set to 3×10^5 per mL and 150 μL of this suspension are in each case introduced into a recess in the cell culture plates coated as described hereinbefore. In the incubator the plates are left for two to three days at 37° C., 5% by volume of CO2 and 95% relative humidity. Subsequently, the cells are loaded with 2 μM of Fluo-4 and 0.01% by volume of Pluronic F127 (Molecular Probes Europe BV, Leiden, the Netherlands) in HBSS buffer (Hank's buffered saline solution, Gibco Invitrogen GmbH, Karlsruhe, Germany) for 30 min at 37° C., washed 3 times with HBSS buffer and after further incubation for 15 minutes at room temperature used for Ca^2+ measurement in a FLIPR assay. The Ca^2+-dependent fluorescence is in this case measured before and after the addition of substances (λex=488 nm, λem=540 nm). Quantification is carried out by measuring the highest fluorescence intensity (FC, fluorescence counts) over time.
The FLIPR protocol consists of 2 substance additions. First the compounds to be tested (10 μM) are pipetted onto the cells and the Ca^2+ influx is compared with the control (capsaicin 10 μM). This provides the result in % activation based on the Ca^2+ signal after the addition of 10 μM of capsaicin (CP). After 5 minutes' incubation, 100 nM of capsaicin are applied and the Ca^2+ influx is also determined.
Desensitising agonists and antagonists lead to suppression of the Ca^2+ influx. The % inhibition is calculated compared to the maximum achievable inhibition with 10 μM of capsazepine.
Triple analyses (n=3) are carried out and repeated in at least 3 independent experiments (N=4).
Starting from the percentage displacement caused by different concentrations of the compounds to be tested of general formula I, IC50 inhibitory concentrations which cause a 50-percent displacement of capsaicin were calculated. K, values for the test substances were obtained by conversion by means of the Cheng-Prusoff equation (Cheng, Prusoff; Biochem. Pharmacol. 22, 3099-3108, 1973).
The affinity of the compounds according to the invention for the vanilloid receptor 1 (VR1/TRPV1 receptor) was determined as described herein before (pharmacological method I).
The value after the “@” symbol indicates the concentration at which the inhibition (as a percentage) was respectively determined.

| Compound | Ki |
| --- | --- |
| 2-(3-methyl-4-(methylsulfonamidomethyl)phenyl)-N-((2-m-tolyl-6-(trifluoromethyl)pyridin-3-yl)methyl)propanamide [Example 97] | 4 nM |
| Cc1cccc(-c2nc(C(F)(F)F)ccc2CNC(=O)Nc2ccc(CNS(C)(=O)=O)cc2)c1 [Example 2, N-(4-(3-((2-m-tolyl-6-(trifluoromethyl)pyridin-3-yl)methyl)ureido)benzyl)methanesulfonamide] | 10 nM |
| Cc1cccc(-c2nc(C(F)(F)F)ccc2CNC(=O)C(C)c2ccc(CNS(C)(=O)=O)cc2)c1 (stereo not shown) [Example 4, 2-(4-(methylsulfonamidomethyl)phenyl)-N-((2-m-tolyl-6-(trifluoromethyl)pyridin-3-yl)methyl)propanamide] | 66 nM |
| CC(C(=O)NCc1ccc(C(F)(F)F)nc1-c1ccccc1)c1ccc(CNS(C)(=O)=O)c(F)c1 (stereo not shown) [Example 5, 2-(3-fluoro-4-(methylsulfonamidomethyl)phenyl)-N-((2-phenyl-6-(trifluoromethyl)pyridin-3-yl)methyl)propanamide] | 31 nM |
| CC(C(=O)NCc1ccc(C(F)(F)F)nc1-c1cccc(F)c1)c1ccc(CNS(C)(=O)=O)c(F)c1 (stereo not shown) [Example 7, 2-(3-fluoro-4-(methylsulfonamidomethyl)phenyl)-N-((2-(3-fluorophenyl)-6-(trifluoromethyl)pyridin-3-yl)methyl)propanamide] | 61 nM |
| CC(C(=O)NCc1ccc(C(F)(F)F)nc1-c1ccc(F)cc1)c1ccc(CNS(C)(=O)=O)c(F)c1 (stereo not shown) [Example 8, 2-(3-fluoro-4-(methylsulfonamidomethyl)phenyl)-N-((2-(4-fluorophenyl)-6-(trifluoromethyl)pyridin-3-yl)methyl)propanamide] | 66 nM |
| CC(C(=O)NCc1ccc(C(F)(F)F)nc1-c1cccc(F)c1F)c1ccc(CNS(C)(=O)=O)c(F)c1 (stereo not shown) [Example 9, N-((2-(2,3-difluorophenyl)-6-(trifluoromethyl)pyridin-3-yl)methyl)-2-(3-fluoro-4-(methylsulfonamidomethyl)phenyl)propanamide] | 47 nM |
| CC(C(=O)NCc1ccc(C(F)(F)F)nc1-c1ccc(F)c(F)c1)c1ccc(CNS(C)(=O)=O)c(F)c1 (stereo not shown) [Example 10, N-((2-(3,4-difluorophenyl)-6-(trifluoromethyl)pyridin-3-yl)methyl)-2-(3-fluoro-4-(methylsulfonamidomethyl)phenyl)propanamide] | 17 nM |
| CC(C(=O)NCc1ccc(C(F)(F)F)nc1-c1cc(F)cc(F)c1)c1ccc(CNS(C)(=O)=O)c(F)c1 (stereo not shown) [Example 11, N-((2-(3,5-difluorophenyl)-6-(trifluoromethyl)pyridin-3-yl)methyl)-2-(3-fluoro-4-(methylsulfonamidomethyl)phenyl)propanamide] | 41 nM |
| CC(C(=O)NCc1ccc(C(F)(F)F)nc1-c1cc(F)ccc1F)c1ccc(CNS(C)(=O)=O)c(F)c1 (stereo not shown) [Example 12, N-((2-(2,5-difluorophenyl)-6-(trifluoromethyl)pyridin-3-yl)methyl)-2-(3-fluoro-4-(methylsulfonamidomethyl)phenyl)propanamide] | 42 nM |
| Cc1ccc(-c2nc(C(F)(F)F)ccc2CNC(=O)C(C)c2ccc(CNS(C)(=O)=O)c(F)c2)cc1F (stereo not shown) [Example 13, 2-(3-fluoro-4-(methylsulfonamidomethyl)phenyl)-N-((2-(3-fluoro-4-methylphenyl)-6-(trifluoromethyl)pyridin-3-yl)methyl)propanamide] | 26 nM |
| COc1ccc(-c2nc(C(F)(F)F)ccc2CNC(=O)C(C)c2ccc(CNS(C)(=O)=O)c(F)c2)cc1F (stereo not shown) [Example 14, 2-(3-fluoro-4-(methylsulfonamidomethyl)phenyl)-N-((2-(3-fluoro-4-methoxyphenyl)-6-(trifluoromethyl)pyridin-3-yl)methyl)propanamide] | 68 nM |
| CC(C(=O)NCc1ccc(C(F)(F)F)nc1-c1cccc(Cl)c1)c1ccc(CNS(C)(=O)=O)c(F)c1 (stereo not shown) [Example 15, N-((2-(3-chlorophenyl)-6-(trifluoromethyl)pyridin-3-yl)methyl)-2-(3-fluoro-4-(methylsulfonamidomethyl)phenyl)propanamide] | 10 nM |
| CC(C(=O)NCc1ccc(C(F)(F)F)nc1-c1ccc(F)c(Cl)c1)c1ccc(CNS(C)(=O)=O)c(F)c1 (stereo not shown) [Example 16, N-((2-(3-chloro-4-fluorophenyl)-6-(trifluoromethyl)pyridin-3-yl)methyl)-2-(3-fluoro-4-(methylsulfonamidomethyl)phenyl)propanamide] | 5 nM |
| C[C@H](C(=O)NCc1ccc(C(F)(F)F)nc1-c1ccc(F)c(Cl)c1)c1ccc(CNS(C)(=O)=O)c(F)c1 [Example 17, (S)—N-((2-(3-chloro-4-fluorophenyl)-6-(trifluoromethyl)pyridin-3-yl)methyl)-2-(3-fluoro-4-(methylsulfonamidomethyl)phenyl)propanamide] | 4 nM |
| Cc1cccc(-c2nc(C3CC3)ccc2CNC(=O)C(C)c2ccc(CNS(C)(=O)=O)c(F)c2)c1 (stereo not shown) [Example 20, N-((6-cyclopropyl-2-m-tolylpyridin-3-yl)methyl)-2-(3-fluoro-4-(methylsulfonamidomethyl)phenyl)propanamide] | 45 nM |
| Cc1cccc(-c2cc(C(C)(C)C)ccc2CNC(=O)C(C)c2ccc(CNS(C)(=O)=O)c(F)c2)c1 (stereo not shown) [Example 21, N-((5-tert-butyl-3′-methylbiphenyl-2-yl)methyl)-2-(3-fluoro-4-(methylsulfonamidomethyl)phenyl)propanamide] | 37 nM |
| Cc1cccc(-c2cc(C(F)(F)F)ccc2CNC(=O)C(C)c2ccc(CNS(C)(=O)=O)c(F)c2)c1 (stereo not shown) [Example 22, 2-(3-fluoro-4-(methylsulfonamidomethyl)phenyl)-N-((3′-methyl-5-(trifluoromethyl)biphenyl-2-yl)methyl)propanamide] | 23 nM |
| Cc1cccc(-c2nc(C(C)(C)C)ccc2CNC(=O)C(C)c2ccc(CNS(C)(=O)=O)c(F)c2)c1 (stereo not shown) [Example 23, N-((6-tert-butyl-2-m-tolylpyridin-3-yl)methyl)-2-(3-fluoro-4-(methylsulfonamidomethyl)phenyl)propanamide] | 24 nM |
| Cc1cccc(-c2nc(C(F)(F)F)ccc2CNC(=O)C(C)c2ccc(CNS(C)(=O)=O)c(F)c2)c1 (stereo not shown) [Example 24, 2-(3-fluoro-4-(methylsulfonamidomethyl)phenyl)-N-((2-m-tolyl-6-(trifluoromethyl)pyridin-3-yl)methyl)propanamide] | 6 nM |
| Cc1cccc(-c2nc(C(F)(F)F)ccc2CNC(=O)[C@@H](C)c2ccc(CNS(C)(=O)=O)c(F)c2)c1 [Example 25, (S)-2-(3-fluoro-4-(methylsulfonamidomethyl)phenyl)-N-((2-m-tolyl-6-(trifluoromethyl)pyridin-3-yl)methyl)propanamide] | 15 nM |

same assay, conditions: inhibition at 1 μM, read-out: (f) inhibition (human being), Cap, @1 μM

| Compound | inhibition at 1 µM |
| --- | --- |
| Cc1ccccc1-c1nc(C(F)(F)F)ccc1CNC(=O)C(C)c1ccc(CNS(C)(=O)=O)c(F)c1 (stereo not shown) [Example 19, 2-(3-fluoro-4-(methylsulfonamidomethyl)phenyl)-N-((2-o-tolyl-6-(trifluoromethyl)pyridin-3-yl)methyl)propanamide] | 18% |

same assay, conditions: inhibition at 5 μM, read-out: (f) inhibition (human being), Cap, @5 μM

| Compound | inhibition at 5 µM |
| --- | --- |
| Cc1cccc(-c2nc(C(F)(F)F)ccc2CNC(=O)C(C)c2cccc(CNS(C)(=O)=O)c2)c1 (stereo not shown) [Example 1, 2-(3-(methylsulfonamidomethyl)phenyl)-N-((2-m-tolyl-6-(trifluoromethyl)pyridin-3-yl)methyl)propanamide] | 44% |
| CC(C(=O)NCc1ccc(C(F)(F)F)nc1-c1ccccc1F)c1ccc(CNS(C)(=O)=O)c(F)c1 (stereo not shown) [Example 6, 2-(3-fluoro-4-(methylsulfonamidomethyl)phenyl)-N-((2-(2-fluorophenyl)-6-(trifluoromethyl)pyridin-3-yl)methyl)propanamide] | 37% |
| C[C@@H](C(=O)NCc1ccc(C(F)(F)F)nc1-c1ccc(F)c(Cl)c1)c1ccc(CNS(C)(=O)=O)c(F)c1 [Example 18, (R)—N-((2-(3-chloro-4-fluorophenyl)-6-(trifluoromethyl)pyridin-3-yl)methyl)-2-(3-fluoro-4-(methylsulfonamidomethyl)phenyl)propanamide] | 42% |

— US8937092B2, “Aryl or N-heteroaryl substituted methanesulfonamide derivatives as vanilloid receptor ligands” (Gruenenthal GmbH, priority 2011, dated 2015)
